Entries after “also recorded” stand apart in the source; their conditions may differ. Positions of bridges follow the written chain, without caps; N, C: chain ends. Residues, ends and D or L forms follow the SMILES beside them.
Key:
[1] = target: T1, chick N-cadherin (Gallus gallus, UniProt P10288); test: N-cadherin dependent neurite outgrowth of rat cerebellar neurons on N-cadherin expressing 3T3 cells (Example 14); format: cell-based; conditions: for inhibition at 250 µg/mL: NIH3T3, 250 μg/mL, 16-18 hours; for inhibitory activity on N-cadherin dependent neurite outgrowth, in words: Tables 8 and 9, 250 or 125 μg/mL; for reduction in inhibitory activity on flanking HAV with E-cadherin amino acids: Table 8, 250 μg/mL; for activity on N-cadherin dependent neurite outgrowth at lower concentration, in words: concentrations of 125 µg/mL or below
T1 construct: expressed in transfected cells; host or cells: 3T3 fibroblasts
T1 sequence (P10288 165-912): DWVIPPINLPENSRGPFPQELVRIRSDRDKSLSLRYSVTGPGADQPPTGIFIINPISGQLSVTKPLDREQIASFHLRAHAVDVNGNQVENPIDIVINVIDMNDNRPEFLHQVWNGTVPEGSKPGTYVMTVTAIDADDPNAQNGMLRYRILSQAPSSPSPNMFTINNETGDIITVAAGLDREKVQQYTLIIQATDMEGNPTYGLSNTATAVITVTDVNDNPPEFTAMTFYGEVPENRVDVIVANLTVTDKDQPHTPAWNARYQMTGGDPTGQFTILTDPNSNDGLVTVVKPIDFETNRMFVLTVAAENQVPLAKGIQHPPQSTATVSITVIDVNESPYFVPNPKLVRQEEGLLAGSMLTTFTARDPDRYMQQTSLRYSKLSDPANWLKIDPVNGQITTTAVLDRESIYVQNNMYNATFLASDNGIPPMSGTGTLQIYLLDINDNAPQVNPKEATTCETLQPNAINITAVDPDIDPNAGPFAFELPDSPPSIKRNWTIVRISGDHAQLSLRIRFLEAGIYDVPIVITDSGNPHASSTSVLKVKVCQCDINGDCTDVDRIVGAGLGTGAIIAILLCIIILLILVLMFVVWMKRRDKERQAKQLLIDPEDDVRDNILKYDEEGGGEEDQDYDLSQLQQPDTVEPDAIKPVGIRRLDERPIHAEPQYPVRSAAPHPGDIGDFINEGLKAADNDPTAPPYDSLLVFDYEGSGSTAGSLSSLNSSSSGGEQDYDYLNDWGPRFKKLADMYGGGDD
Procedure: Cell culture and neurite outgrowth assays. Co-cultures of cerebellar neurons on monolayers of control 3T3 cells and monolayers of transfected 3T3 cells that express physiological levels of chick N-cadherin or human L1 were established as previously described (Williams et al., Neuron 13:583-594, 1994). In brief, 80,000 3T3 cells (control and transfected) were plated into individual chambers of an eight-chamber tissue culture slide coated with polylysine and fibronectin and cultured in DMEM/10% FCS. After 24 hours, when confluent monolayers had formed, the medium was removed and 3000 cerebellar neurons isolated from post-natal day 2-3 rats were plated into each well in SATO media (Doherty et al., Nature 343:464-466, 1990) supplemented with 2% FCS. All of the test peptides were added immediately before the neurons as a 2×stock prepared in SATO/2% FCS. The co-cultures were maintained for 16-18 hours, at which time they were fixed and immunostained for GAP-43 which is present only in the neurons and delineates the neuritic processes. The mean length of the longest neurite per cell was measured for 150-200 neurons sampled in replicate cultures as previously described (Williams et al., Neuron 13:583-594, 1994). […] Dose-response curves were evaluated and the EC50 values determined.
Effects of cyclic HAV peptides on N-cadherin function. The ability of N-Ac-CHAVC-NH2 (SEQ ID NO:10; compound 1) to inhibit neurite outgrowth was initially tested. This cyclic peptide has the cadherin CAR sequence (HAV) and no flanking amino acid residues. Neurons were cultured on confluent monolayers of control (untransfected) and N-cadherin expressing 3T3 cells for 16-18 hours. The cells were then fixed and the length of the longest neurite on 150-200 neurons was determined by standard assay, as described above. FIG. 24 gives the mean neurite length in a representative experiment where cerebellar neurons have been cultured over control and N-cadherin expressing cells. In the absence of peptide, the mean length of the longest neurite per cell was approximately double on the N-cadherin expressing cells, as compared to 3T3 cells. This response requires N-cadherin function in both the neuron and transfected fibroblast.

[2] = in vitro; format: cell-based; conditions: human
Procedure: (§1) N-Ac-CHAVC-NH2 (SEQ ID NO:10) and the control peptide N-Ac-CHGVC-NH2 (SEQ ID NO:20) were evaluated for possible cytotoxic effects on human microvascular endothelial (HMVEC; Clonetics), human umbilical vein endothelial (HUVEC; ATCC #CRL-1730), IAFp2 (human fibroblast cell line; Institute Armand-Frapier, Montreal, Quebec), WI-38 (human fibroblast cell line; ATCC #CCL-75), MDA-MB231 (human breast cancer cell line; ATCC #HTB-26), and PC-3 (human prostate cancer cell line; ATCC #CRL-1435) cells utilizing the MTT assay (Plumb et al., Cancer Res. 49:4435-4440, 1989). Neither of the peptides was cytotoxic at concentrations up to and including 100 μM. Similarly, neither of the peptides was capable of inhibiting the proliferation of the above cell lines at concentrations up to 100 μM, as judged by ^3H-thymidine incorporation assays.

[3] = in vitro; format: cell-based; conditions: human; remark: listed apart in the source
Procedure: as §1

[4] = in vitro; format: cell-based; conditions: human; remark: listed apart in the source
Procedure: as §1

[5] = in vitro; format: cell-based; conditions: human; remark: listed apart in the source
Procedure: as §1

[6] = test system: angiogenesis in chick embryonic chorioallantoic membranes; test: Chick chorioallantoic membrane angiogenesis assay; format: in vivo; conditions: 3, 17, and 33 μg/mesh
Procedure: The chick chorioallantoic membrane assay was used to assess the effects of cyclic peptides on angiogenesis (Iruela-Arispe et al., Molecular Biology of the Cell 6:327-343, 1995). Cyclic peptides were embedded in a mesh composed of vitrogen at concentrations of 3, 17, and 33 μg/mesh. The meshes were then applied to 12-day-old chick embryonic chorioallantoic membranes. After 24 hours, the effects of the peptides on angiogenesis were assessed by computer assisted morphometric analysis.
For each concentration of cyclic peptide, the percent inhibition of angiogenesis (relative to the level of angiogenesis in the absence of cyclic peptide) is provided. Assays were performed in the presence (+) or absence (−) of […] VEGF. For example, the cyclic peptide N-Ac-CHAVC-NH2 (SEQ ID NO:10) inhibited angiogenesis by 46%, 51%, and 51% at concentrations of 3, 17, and 33 μg/mesh, respectively.

Molecule | inhibition at 250 µg/mL [1] [%] | IC50 [2] [µM] | IC50 [3] [µM] | IC50 [4] [µM] | IC50 [5] [µM] | further results
CC(C)[C@@H]1NC(=O)CNC(=O)[C@H](Cc2c[nH]cn2)NC(=O)[C@H](C)NC(=O)[C@@H](N)CSSC[C@@H](C(N)=O)NC(=O)[C@H](CC(=O)O)NC1=O [H-CAHGVDC-NH2, reference compound] (H-CAHGVDC-NH2; disulfide 1-7) | 5.7 ± 7.8 | > 100 | > 100 | > 100 | > 100 | 
CC[C@H](C)[C@@H]1NC(=O)[C@H](CC(=O)O)NC(=O)[C@H](C(C)C)NC(=O)[C@H](C)NC(=O)[C@H](Cc2c[nH]cn2)NC(=O)[C@H](C)NC(=O)[C@@H](N)CSSC[C@@H](C(N)=O)NC1=O (H-CAHAVDIC-NH2; disulfide 1-8) | -3.7 ± 2.9 | > 100 | > 100 | > 100 | > 100 | inhibitory activity on N-cadherin dependent neurite outgrowth, in words [1]: total loss of activity; inhibitory activity on N-cadherin dependent neurite outgrowth, in words ([1]; listed as compound 15): lost activity
CC[C@H](C)[C@@H]1NC(=O)[C@H](CC(=O)O)NC(=O)[C@H](C(C)C)NC(=O)CNC(=O)[C@H](Cc2c[nH]cn2)NC(=O)[C@H](C)NC(=O)[C@@H](NC(C)=O)CSSC[C@@H](C(N)=O)NC1=O [reference compound] (Ac-CAHGVDIC-NH2; disulfide 1-8) | 4.8 ± 6.5 | > 100 | > 100 | > 100 | > 100 | 
N-Ac-CSHAVSC-NH2 (disulfide 1-7 (inferred)) |  |  |  |  |  | reduction in inhibitory activity on flanking HAV with E-cadherin amino acids [1]: complete
N-Ac-CHAVSSC-NH2 (disulfide 1-7 (inferred)) |  |  |  |  |  | reduction in inhibitory activity on flanking HAV with E-cadherin amino acids [1]: substantial
CC(=O)N[C@H]1CSSC[C@@H](C(N)=O)NC(=O)[C@H](Cc2c[nH]cn2)NC(=O)[C@H](C)NC(=O)[C@H](C(C)C)NC1=O [N-Ac-CVAHC-NH2] (Ac-CVAHC-NH2; disulfide 1-5 (inferred)) |  | > 100 | > 100 | > 100 | > 100 | inhibition of angiogenesis, in words [6]: relatively inactive
N-Ac-CAHAVC-NH2 (disulfide 1-6 (inferred)) |  |  |  |  |  | activity on N-cadherin dependent neurite outgrowth at lower concentration, in words [1]: lost activity
CC(=O)N[C@H]1CSSC[C@@H](C(N)=O)NC(=O)[C@H](Cc2c[nH]cn2)NC(=O)CNC(=O)[C@H](C(C)C)NC1=O [N-Ac-CVGHC-NH2, reference compound] (Ac-CVGHC-NH2; disulfide 1-5 (inferred)) |  | > 100 | > 100 | > 100 | > 100 | 
CC(C)[C@@H]1NC(=O)[C@H](C)NC(=O)[C@H](Cc2c[nH]cn2)NC(=O)[C@H](C)NC(=O)[C@@H](N)CSSC[C@@H](C(N)=O)NC(=O)[C@H](CC(=O)O)NC1=O [H-CAHAVDC-NH2, H-Cys-Ala-His-Ala-Val-Asp-Cys-NH2] (H-CAHAVDC-NH2; disulfide 1-7) | 1.3 ± 13 | > 100 | > 100 | > 100 | > 100 | 
CC(=O)N[C@H]1CSSC[C@@H](C(N)=O)NC(=O)[C@H](CO)NC(=O)[C@H](C(C)C)NC(=O)CNC(=O)[C@H](Cc2c[nH]cn2)NC1=O [N-Ac-CHGVSC-NH2, reference compound] (Ac-CHGVSC-NH2; disulfide 1-6) | -6.7 ± 5.8 | > 100 | > 100 | > 100 | > 100 | 
N-Ac-CRAHAVDC-NH2 (disulfide 1-8 (inferred)) |  |  |  |  |  | inhibitory activity on N-cadherin dependent neurite outgrowth, in words [1]: completely eliminated inhibitory activity
N-Ac-CLRAHAVC-NH2 (disulfide 1-8 (inferred)) |  |  |  |  |  | inhibitory activity on N-cadherin dependent neurite outgrowth, in words [1]: detrimental affect
CC(=O)N[C@H]1CSSC[C@@H](C(N)=O)NC(=O)[C@H](C(C)C)NC(=O)[C@H](C)NC(=O)[C@H](Cc2c[nH]cn2)NC(=O)[C@H](CO)NC1=O [N-Ac-CSHAVC-NH2, N-Ac-Cys-Ser-His-Ala-Val-Cys-NH2] (Ac-CSHAVC-NH2; disulfide 1-6) | 11 ± 8.6 | > 100 | > 100 | > 100 | > 100 | reduction in inhibitory activity on flanking HAV with E-cadherin amino acids [1]: complete
CC(=O)N[C@H]1CSSC[C@@H](C(N)=O)NC(=O)[C@H](C(C)C)NC(=O)CNC(=O)[C@H](Cc2c[nH]cn2)NC(=O)[C@H](CO)NC1=O [N-Ac-CSHGVC-NH2, reference compound] (Ac-CSHGVC-NH2; disulfide 1-6) | 12.5 ± 7.5 | > 100 | > 100 | > 100 | > 100 | 
N-Ac-CLRAHAVDC-NH2 (disulfide 1-9 (inferred)) |  |  |  |  |  | inhibitory activity on N-cadherin dependent neurite outgrowth, in words [1]: potent inhibitors of neurite outgrowth; also recorded: partial recovery of activity; activity on N-cadherin dependent neurite outgrowth at lower concentration, in words [1]: lost activity
CC[C@H](C)[C@@H]1NC(=O)[C@H](CC(=O)O)NC(=O)[C@H](C(C)C)NC(=O)CNC(=O)[C@H](Cc2c[nH]cn2)NC(=O)[C@H](C)NC(=O)[C@@H](N)CSSC[C@@H](C(N)=O)NC1=O [reference compound] (H-CAHGVDIC-NH2; disulfide 1-8) | 7.2 ± 8.1 | > 100 | > 100 | > 100 | > 100 | 
CC(=O)N[C@H]1CSSC[C@@H](C(N)=O)NC(=O)[C@H](CC(=O)O)NC(=O)[C@H](C(C)C)NC(=O)[C@H](C)NC(=O)[C@H](Cc2cnc[nH]2)NC1=O [N-Ac-CHAVDC-NH2] (Ac-CHAVDC-NH2; disulfide 1-6) |  |  |  |  |  | EC50 ([1]; from dose-response curve): 93 µM
N-Ac-CHAVDINGC-NH2 (disulfide 1-9 (inferred)) |  |  |  |  |  | inhibitory activity on N-cadherin dependent neurite outgrowth, in words [1]: completely abrogates activity

— patent US20030224978A1, “Compounds and methods for modulating apoptosis” (McGill University, priority 1996, published 2003)
